Assay results from US20080241194A1, “COMPOSITIONS AND METHODS FOR PROTECTING ORGANS, TISSUE AND CELLS FROM IMMUNE SYSTEM-MEDIATED DAMAGE” (THE BOARD OF TRUSTEES OF THE LELAND STANFORD JUNIOR …, priority 1998, published 2008).
Ends that are not written are not given here.

Columns and labels:
OCI-Ly8 tumor cell = assay: ^51Cr release CIK cytotoxicity assay, tumor targets; type: cell-based, human; settings: peptide 10 μM, E:T 20:1
Method: (§1) Target cells were metabolically labelled with ^51Cr (Dupont—New England Nuclear, Boston, Mass.) by incubating 1×10^6 cells in […] ^51Cr at 37° C. for 1-1.5 hours. The labelled cells were washed three times with phosphate buffered saline (PBS) containing 0.1% bovine serum albumin. The labelled cells were distributed in flat-bottomed 96 well microtiter plates at a concentration of 2×10^4 cells/well in triplicate. Effector (CIK) cells were added at the indicated ratios. Mabs were added prior to the addition of effector cells, and incubated for 15-30 minutes at room temperature. The final volume of the assay mixture in each well was 0.2 ml. After 4 hours at 37° C., the cells were collected by centrifugation and an aliquot of the supernatant was counted in a gamma counter (Micromedic Systems, Horsham, Pa.). The percentage of specific ^51Cr release was calculated according to the following equation: […]
Spontaneous release was obtained by incubating the labelled cells in complete medium alone and maximal release by treatment of the cells with 1% NP-40. […]

[1] = Solubility of synthesized peptide; type: physicochemical; settings: used in PBS and RPMI 1640
Method: A hydrophilic 9 mer peptide of the sequence […] (SEQ ID NO:3) which corresponds to the region of shared homology of Hsp47 with HLA-A2 was synthesized by the Stanford PAN facility on a BioApplied® peptide synthesizer, HPLC purified and verified by amino acid sequencing. Pure peptide was lyophilized and stored at −20° C.

Balb/c mice = assay: Murine GvHD model, bone marrow transplant; type: in vivo, mouse; settings: for protection from GvHD: 300 μg Hsp47-Gst protein with graft cells, single injection day 0, monitored 4 weeks, 5 animals
Method: Male Balb/c mice were twice irradiated with 500 Rads prior to transplantation. Bone marrow (BM) and spleen derived stem cells were obtained from B10D2 (H-2^d background) mice. 2.5×10^6 BM and 1×10^6 spleen cells were pooled as a graft source for each recipient male Balb/c animal. This non-enriched stem cell population of cells were either suspended in RPMI containing 300 μg Hsp47-Gst protein in 300 μl total volume, or, in buffer containing 100 μg of Gst control protein alone. Cells and protein were given in a single injection on day 0. No other immunosuppressive treatments were given. Animals were monitored for 4 weeks after the bone marrow transplant.

HUVEC = assay: ^51Cr release CIK cytotoxicity assay, endothelial cell targets pre-treated with BFA, protein or peptide; type: cell-based, human
Method: as §1
Spontaneous release was obtained by incubating the labelled cells in complete medium alone and maximal release by treatment of the cells with 1% NP-40.
For brefeldin A (BFA) treatment, freshly confluent HUVEC monolayers, nonadherent target cells or CIK cells at 0.5-2×10^6 cells per ml were incubated with medium supplemented with 0.5-10 μg of brefeldin A (B6hringer Mannheim GmbH, Mannheim, Germany) per ml medium and incubated for 2-6 hours in a humidified incubator with 5% carbon dioxide at 37° C. BFA was dissolved at 100 μg per ml in 70% ethanol and used fresh or stored up to 4 weeks at −20° C. Prior to cytotoxicity assay the cells were rinsed three times with PBS, and fresh medium not containing BFA was added for the remainder of the assay (FIG. 4).
Both HUVEC and OCI-Ly8 cells were incubated with BFA at concentrations of 0, 2.5, 5, 7.5 and 10 μM for 6 hours as described above, washed, labeled with ^51Cr and used in a cytotoxicity assay with d21 CIK cells at an E:T ratio of 20:1. Preincubation of EC targets with 2.5 μM BFA reduced CIK mediated cytotoxicity by 40%.
Subsequent to ^51Cr labeling but prior to addition of effector cells 10-200 μg FPLC purified Hsp47 (Example 7) protein or 10 nM to 10 μM HPLC purified peptide […] (SEQ ID NO:3) (Example 8), both in sterile PBS at pH 7.4 and diluted to the final concentration with RPMI, were added to targets per ml of medium and incubated for 30 minutes at 37° C. in a humidified atmosphere of 5% CO2. In assays using purified protein, targets were subjected to three subsequent washes with 10 volumes of Ca^2+, Mg^2+ and 5% FCS containing PBS prior to providing fresh standard culture medium to the target cells. In assays using purified peptide, the added peptide was present for the entire assay. The remainder of the assay was performed as detailed above, at 37° C. in a humidified atmosphere of 5% CO2.

granzyme A = molecular target: T1, granzyme A (Homo sapiens, UniProt P12544); assay: BLT esterase or SDS-PAGE gelshift assays with granzymes; type: biochemical; settings: data not shown
T1 sequence (P12544 29-262): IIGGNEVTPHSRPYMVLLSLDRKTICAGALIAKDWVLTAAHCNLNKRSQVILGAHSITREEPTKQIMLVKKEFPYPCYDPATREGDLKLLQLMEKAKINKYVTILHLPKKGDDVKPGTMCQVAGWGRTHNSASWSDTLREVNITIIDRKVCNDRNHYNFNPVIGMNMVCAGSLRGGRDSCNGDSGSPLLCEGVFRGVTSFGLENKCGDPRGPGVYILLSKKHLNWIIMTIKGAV
Source text: By sequence homology, Hsp47 is a serine protease inhibitor with theoretical specificity for lysine at the active site of incoming serine proteases. Serpins act as “bait” representing cleavable substrates which form a stable instead of a transitory covalent bond with the active center of serine proteases. […] Thus, serpins inactivate serine proteases in a stoichiometric ratio of 1:1. Despite the sequence relationship, no substrate serine protease has so far been identified for Hsp47. Some authors expect the serpin-domain to be nonfunctional because its “active site” amino acids are modified (Hirayoshi et al., Mol Cell Biol 11:4036-4044 (1991)). […] In ^51Cr-release assays, deletion of the serpin domain led to loss of function of the affected truncation mutants. However, as further deletions of the gene re-established full function to the smaller truncated Hsp47 mutants, expressing then little more than the H1,A-A2-consensus region discussed below, we assume that the loss of function of the C-terminal truncation of Hsp47's serpin domain causes a conformational change in the protein which normalizes with further truncation. […]

major serine proteases = settings: Davids et al. 1995; cited from earlier work

In the case of AVLSAEQLR, the “reduction of specific target lysis, CIK-OCI-Ly8 tumor cell ^51Cr cytotoxicity assay” value (OCI-Ly8 tumor cell) is reported as “less than 10%” and the “solubility in aqueous solution” value [1] is reported as “soluble in aqueous solution”.

In the case of “huHsp47-GST protein: fusion protein of human Hsp47 and N-terminally tagged glutathione-S-transferase, expressed in bacteria”, the “protection from GvHD” value (Balb/c mice) is reported as “none developed graft vs. host disease”, the “protection from GvHD” value (Balb/c mice; listed as Hsp-Gst protein) is reported as “protected from the onset of GvHD, fur ruffling, weight loss and death” and the opportunistic infection (Balb/c mice; full body irradiated mice, BMT, over the time period tested) is reported as “none developed opportunistic infection”. The “reduction of EC lysis” value (HUVEC; 1 μM huHsp47-GST protein) was 50%, the “protection of EC by purified recombinant protein” value (HUVEC; dose response) was “protects EC in a dose responsive fashion” and the “protection of EC from CIK mediated lysis” value (HUVEC; pre-incubation with 10 μM huHsp47-GST protein) was “completely protects”. The “irreversible inhibition of granzymes” value (granzyme A) was “not able to demonstrate a function of Hsp47 as an irreversible inhibitor”.

B1: murine Hsp47: purified murine Hsp47 from cited work (protein, UniProt P19324 18-417, looked up)
Serpin H1: AEVKKPLEAAAPGTAEKLSSKATTLAERSTGLAFSLYQAMAKDQAVENILLSPLVVASSLGLVSLGGKATTASQAKAVLSAEKLRDEEVHTGLGELLRSLSNSTARNVTWKLGSRLYGPSSVSFADDFVRSSKQHYNCEHSKINFRDKRSALQSINEWASQTTDGKLPEVTKDVERTDGALLVNAMFFKPHWDEKFHHKMVDNRGFMVTRSYTVGVTMMHRTGLYNYYDDEKEKLQMVEMPLAHKLSSLIILMPHHVEPLERLEKLLTKEQLKAWMGKMQKKAVAISLPKGVVEVTHDLQKHLAGLGLTEAIDKNKADLSRMSGKKDLYLASVFHATAFEWDTEGNPFDQDIYGREELRSPKLFYADHPFIFLVRDNQSGSLLFIGRLVRPKGDKMRDEL
In the case of B1, the “inhibition of major serine proteases” value (major serine proteases) is given as “failed to inhibit”.
